Tests used:
[1] = system: Mus musculus; test: In vivo inhibitory activity against mescaline-induced head twitches of mice after pretreatment for 1 hour upon subcutaneous administration; assay type: functional; details: sc
[2] = system: Mus musculus; test: In vivo inhibitory activity against mescaline-induced head twitches of mice after pretreatment for 15 hours upon peroral administration; assay type: functional; details: po
[3] = system: Rattus norvegicus; test: In vivo inhibitory activity against mescaline-induced head twitches of rat after pretreatment for 1 hour upon peroral administration; assay type: functional
[4] = biological target: 5-hydroxytryptamine receptor 2A (Rattus norvegicus, UniProt P14842); test: In vitro binding affinity towards serotonin 5-HT2A receptor in rat cortical membranes using [3H]ketanserin as radioligand; assay type: cell membranes
5-hydroxytryptamine receptor 2A, sequence (P14842 whole entry): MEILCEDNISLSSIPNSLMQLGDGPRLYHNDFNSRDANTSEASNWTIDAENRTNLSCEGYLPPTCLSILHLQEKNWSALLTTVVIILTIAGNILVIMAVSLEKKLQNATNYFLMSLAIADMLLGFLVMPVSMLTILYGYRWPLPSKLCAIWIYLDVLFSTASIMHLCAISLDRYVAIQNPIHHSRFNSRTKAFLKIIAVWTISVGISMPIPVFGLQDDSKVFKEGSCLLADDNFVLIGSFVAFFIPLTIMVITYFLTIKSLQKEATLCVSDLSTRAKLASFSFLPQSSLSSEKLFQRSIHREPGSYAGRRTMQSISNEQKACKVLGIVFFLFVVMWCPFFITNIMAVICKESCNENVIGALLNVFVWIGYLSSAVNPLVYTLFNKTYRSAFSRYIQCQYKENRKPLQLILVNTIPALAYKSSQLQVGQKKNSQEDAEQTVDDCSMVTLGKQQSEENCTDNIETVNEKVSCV

[5] = biological target: T1, Adrenergic receptor alpha-1 (Homo sapiens, UniProt P35348+P25100+P35368); test: Binding affinity towards Alpha-1 adrenergic receptor; assay type: protein assay
T1 sequence (P35348 whole entry): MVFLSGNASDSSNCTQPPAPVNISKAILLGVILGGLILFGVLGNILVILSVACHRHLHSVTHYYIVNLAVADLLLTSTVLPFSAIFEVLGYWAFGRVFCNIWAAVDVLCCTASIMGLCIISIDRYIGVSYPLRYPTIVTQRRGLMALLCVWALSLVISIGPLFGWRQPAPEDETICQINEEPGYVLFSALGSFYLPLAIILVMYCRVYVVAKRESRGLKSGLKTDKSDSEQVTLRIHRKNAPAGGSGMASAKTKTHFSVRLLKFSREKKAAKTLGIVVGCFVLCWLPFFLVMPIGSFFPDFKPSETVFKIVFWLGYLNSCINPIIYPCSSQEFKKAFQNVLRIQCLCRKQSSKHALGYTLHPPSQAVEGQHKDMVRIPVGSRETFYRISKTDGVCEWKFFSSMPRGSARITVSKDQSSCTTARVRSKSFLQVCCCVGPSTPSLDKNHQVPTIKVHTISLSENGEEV
T1 sequence (P25100 whole entry): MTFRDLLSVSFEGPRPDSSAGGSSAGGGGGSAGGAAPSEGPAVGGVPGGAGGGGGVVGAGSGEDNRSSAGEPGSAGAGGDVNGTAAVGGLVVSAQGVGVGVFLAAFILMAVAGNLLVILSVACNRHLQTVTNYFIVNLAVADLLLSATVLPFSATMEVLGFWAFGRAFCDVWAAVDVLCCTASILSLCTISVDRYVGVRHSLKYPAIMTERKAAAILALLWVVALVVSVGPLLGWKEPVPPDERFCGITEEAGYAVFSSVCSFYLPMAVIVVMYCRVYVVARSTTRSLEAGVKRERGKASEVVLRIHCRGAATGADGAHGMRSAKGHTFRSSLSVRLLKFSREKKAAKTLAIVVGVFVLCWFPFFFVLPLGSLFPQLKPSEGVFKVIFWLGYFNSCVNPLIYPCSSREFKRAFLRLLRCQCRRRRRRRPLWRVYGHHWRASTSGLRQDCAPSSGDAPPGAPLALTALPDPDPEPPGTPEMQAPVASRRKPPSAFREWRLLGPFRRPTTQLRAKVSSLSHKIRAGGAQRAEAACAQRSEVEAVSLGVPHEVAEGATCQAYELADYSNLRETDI
T1 sequence (P35368 whole entry): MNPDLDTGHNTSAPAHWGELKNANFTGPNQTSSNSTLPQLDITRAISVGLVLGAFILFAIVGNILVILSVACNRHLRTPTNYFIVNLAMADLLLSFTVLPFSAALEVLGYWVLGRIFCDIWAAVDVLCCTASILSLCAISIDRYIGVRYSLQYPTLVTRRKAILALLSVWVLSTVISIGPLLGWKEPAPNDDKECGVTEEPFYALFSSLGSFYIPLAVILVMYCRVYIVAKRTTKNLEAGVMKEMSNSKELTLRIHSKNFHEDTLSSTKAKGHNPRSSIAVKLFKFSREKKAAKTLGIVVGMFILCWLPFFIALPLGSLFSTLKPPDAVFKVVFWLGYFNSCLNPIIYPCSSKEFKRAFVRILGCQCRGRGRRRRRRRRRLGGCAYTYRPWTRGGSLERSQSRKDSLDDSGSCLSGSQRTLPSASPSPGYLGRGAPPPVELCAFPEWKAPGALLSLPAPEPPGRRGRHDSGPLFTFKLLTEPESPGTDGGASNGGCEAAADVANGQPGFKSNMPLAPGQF

[6] = biological target: D(2) dopamine receptor (Homo sapiens, UniProt P14416); test: Binding affinity towards dopamine D2 receptor
D(2) dopamine receptor, sequence (P14416 whole entry): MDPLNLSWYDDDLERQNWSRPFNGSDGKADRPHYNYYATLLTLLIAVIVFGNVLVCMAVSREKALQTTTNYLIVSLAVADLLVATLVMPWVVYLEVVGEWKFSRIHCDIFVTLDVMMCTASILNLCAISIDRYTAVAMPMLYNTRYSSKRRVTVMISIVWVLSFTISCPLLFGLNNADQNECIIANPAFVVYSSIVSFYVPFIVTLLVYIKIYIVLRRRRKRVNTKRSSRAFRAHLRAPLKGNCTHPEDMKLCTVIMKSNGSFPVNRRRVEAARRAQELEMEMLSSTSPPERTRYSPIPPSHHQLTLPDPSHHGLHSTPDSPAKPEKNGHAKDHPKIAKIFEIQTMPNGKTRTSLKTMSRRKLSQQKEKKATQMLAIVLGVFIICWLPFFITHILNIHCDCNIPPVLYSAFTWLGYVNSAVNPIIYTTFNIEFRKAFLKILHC

[7] = biological target: Histamine H1 receptor (Homo sapiens, UniProt P35367); test: Binding affinity towards histamine H1 receptor
Histamine H1 receptor, sequence (P35367 whole entry): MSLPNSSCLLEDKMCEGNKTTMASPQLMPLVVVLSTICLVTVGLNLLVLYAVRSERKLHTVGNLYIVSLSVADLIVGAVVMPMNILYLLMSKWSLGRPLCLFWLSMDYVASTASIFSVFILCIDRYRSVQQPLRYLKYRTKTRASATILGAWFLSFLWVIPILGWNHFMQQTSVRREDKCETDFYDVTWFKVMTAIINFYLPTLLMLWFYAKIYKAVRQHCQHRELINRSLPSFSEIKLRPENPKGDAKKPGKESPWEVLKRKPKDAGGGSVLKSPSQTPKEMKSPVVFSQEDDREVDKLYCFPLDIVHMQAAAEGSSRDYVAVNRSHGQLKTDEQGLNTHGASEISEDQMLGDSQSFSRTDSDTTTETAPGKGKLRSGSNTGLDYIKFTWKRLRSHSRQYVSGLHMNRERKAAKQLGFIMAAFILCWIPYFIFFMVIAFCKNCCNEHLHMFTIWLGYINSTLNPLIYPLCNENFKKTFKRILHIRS

[8] = system: Mus musculus; test: In vivo inhibitory activity against DOI-induced head twitches of mice after pretreatment for 15 hours upon peroral administration; assay type: functional
[9] = biological target: T2, Muscarinic acetylcholine receptor M4 (Homo sapiens, UniProt P08173); test: Binding affinity towards muscarinic receptor
T2 sequence (P08173 whole entry): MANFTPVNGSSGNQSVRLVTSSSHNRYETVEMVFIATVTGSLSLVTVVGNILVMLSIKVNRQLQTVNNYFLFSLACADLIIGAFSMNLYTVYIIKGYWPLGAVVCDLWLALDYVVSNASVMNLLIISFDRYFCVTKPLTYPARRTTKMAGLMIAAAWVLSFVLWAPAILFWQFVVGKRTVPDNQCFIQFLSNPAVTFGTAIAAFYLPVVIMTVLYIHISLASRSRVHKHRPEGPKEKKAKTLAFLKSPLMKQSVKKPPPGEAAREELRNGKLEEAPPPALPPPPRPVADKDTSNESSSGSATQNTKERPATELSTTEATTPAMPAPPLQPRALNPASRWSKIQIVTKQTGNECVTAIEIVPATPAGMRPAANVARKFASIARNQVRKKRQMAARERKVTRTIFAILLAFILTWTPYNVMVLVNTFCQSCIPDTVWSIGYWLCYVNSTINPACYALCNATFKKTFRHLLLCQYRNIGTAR

[10] = system: Rattus norvegicus; test: In vivo inhibitory activity against mescaline-induced head twitches of rat after pretreatment for 1 hour upon subcutaneous administration; assay type: functional
[11] = system: Rattus norvegicus; test: In vivo inhibitory activity against mescaline-induced head twitches of rat after pretreatment for 16 hours upon peroral administration; assay type: functional
[12] = system: Rattus norvegicus; test: In vivo inhibitory activity against mescaline-induced head twitches of rat after pretreatment for 6 hours upon peroral administration; assay type: functional
[13] = system: Mus musculus; test: In vivo inhibitory activity against DOI-induced head twitches of mice after pretreatment for 1 hour upon subcutaneous administration; assay type: functional
[14] = Rattus norvegicus, po, read-out: ED50

With `c1ccc(N2CCN(C3CC[Si](c4ccccc4)(c4ccccc4)C3)CC2)cc1` (stereo unspecified) the ED50 [1] was 68 mg/kg, the ED50 [2] was 45 mg/kg and the ED50 [3, 14] was 84 mg/kg. For the same molecule, the IC50 [4] was 1 nM.

`Oc1ccc(N2CCN(C3CC[Si](c4ccccc4)(c4ccccc4)C3)CC2)cc1` (stereo unspecified) gave an IC50 [4] of 46 nM.

In the case of `c1ccc([Si]2(c3ccccc3)CCC(N3CCN(c4ncccn4)CC3)C2)cc1` (stereo unspecified), the IC50 [4] is reported as 80 nM.

For `Cc1ccc(N2CCN(C3CC[Si](c4ccccc4)(c4ccccc4)C3)CC2)cc1` (stereo unspecified), the IC50 [4] was 10 nM.

`Fc1ccc(C2=CCN(C3CC[Si](c4ccccc4)(c4ccccc4)C3)CC2)cc1` (stereo unspecified) showed an IC50 [4] of 14 nM.

For `c1ccc([Si]2(c3ccccc3)CCC(N3CCN(c4ccccn4)CC3)C2)cc1` (stereo unspecified), the IC50 [4] was 29 nM.

`Fc1ccc(N2CCN(C3CC[Si](c4ccc(F)cc4)(c4ccc(F)cc4)C3)CC2)cc1` (stereo unspecified) showed an IC50 [4] of 18 nM.

`Fc1cccc(N2CCN(C3CC[Si](c4ccccc4)(c4ccccc4)C3)CC2)c1` (stereo unspecified) was tested, and the IC50 [4] was 3.4 nM.

For `c1ccc(C2CCN(C3CC[Si](c4ccccc4)(c4ccccc4)C3)CC2)cc1` (stereo unspecified), the IC50 [4] was 53 nM.

With `Clc1ccc(N2CCN(C3CC[Si](c4ccccc4)(c4ccccc4)C3)CC2)cc1` (stereo unspecified) the IC50 [4] was 25 nM.

`Cc1cccc(N2CCN(C3CC[Si](c4ccccc4)(c4ccccc4)C3)CC2)c1` (stereo unspecified) showed an IC50 [4] of 33 nM.

`Fc1ccccc1N1CCN(C2CC[Si](c3ccccc3)(c3ccccc3)C2)CC1` (stereo unspecified) showed an IC50 [4] of 100 nM.

`Fc1ccc(N2CCN(C3CC[Si](c4ccccc4)(c4ccccc4)C3)CC2)cc1` (stereo unspecified) showed an ED50 [1] of 10 mg/kg, an ED50 [2] of 15 mg/kg and an IC50 [4] of 0.9 nM.

Molecule `Fc1ccc([Si]2(c3ccc(F)cc3)CCC(N3CCN(c4ccccc4)CC3)C2)cc1` (racemic) has an IC50 [5] of 86 nM, an IC50 [6] of 140 nM and an IC50 [7] greater than 1000 nM. For the same molecule, the ED50 [1] was 1.38 mg/kg, the ED50 [2] was 0.44 mg/kg and the ED50 [8] was 0.59 mg/kg. For the same molecule, the IC50 [9] was greater than 1000 nM, the ED50 [3] was 1.93 mg/kg and the ED50 [10] was 10 mg/kg. The ED50 [11] was 1.25 mg/kg, the ED50 [12] was 0.48 mg/kg and the IC50 [4] was 2 nM. The ED50 [13] was 0.73 mg/kg.

`Fc1ccc([Si]2(c3ccccc3)CCC(N3CCN(c4ccccc4)CC3)C2)cc1` (single isomer, unassigned) gave an IC50 [4] of 20 nM.

Work on `Fc1ccc([Si]2(c3ccc(F)cc3)CCC(N3CCN(c4ccccc4)CC3)C2)cc1` (single isomer, unassigned; (+)) yielded an IC50 [5] of 100 nM, an IC50 [6] of 100 nM and an IC50 [7] greater than 1000 nM. For the same molecule, the ED50 [8] was 0.62 mg/kg, the IC50 [9] was greater than 1000 nM and the ED50 [3] was 2.03 mg/kg. For the same molecule, the ED50 [10] was 1.56 mg/kg, the ED50 [11, 14] was less than 2.5 mg/kg and the ED50 [12, 14] was less than 0.63 mg/kg. For the same molecule, the IC50 [4] was 3 nM and the ED50 [13] was 0.59 mg/kg.

Work on `Fc1ccc([Si]2(c3ccc(F)cc3)CCC(N3CCN(c4ccccc4)CC3)C2)cc1` (single isomer, unassigned; (-)) yielded an ED50 [8] of 10.5 mg/kg, an ED50 [3] of 10.25 mg/kg and an ED50 [10] of 10.25 mg/kg. For the same molecule, the IC50 [4] was 25 nM and the ED50 [13] was greater than 5 mg/kg.

Work on `Fc1ccc([Si]2(c3ccccc3)CCC(N3CCN(c4ccccc4)CC3)C2)cc1` (stereo in doubt) yielded an IC50 [4] of 27 nM.

In the case of `Fc1ccc([Si]2(c3ccc(F)cc3)CCC(N3CCN(c4ccccc4)CC3)C2)cc1` (stereo in doubt), the IC50 [4] is reported as 16 nM.

In the case of `Cc1nc2sccn2c(=O)c1CCN1CCC(=C(c2ccc(F)cc2)c2ccc(F)cc2)CC1` [RITANSERIN], the ED50 [1] is reported as 0.29 mg/kg, the ED50 [2] is reported as 0.09 mg/kg and the ED50 ([8]; Mus musculus, po, read-out: ED50) is reported as 0.08 mg/kg. The ED50 ([10]; Rattus norvegicus, sc, read-out: ED50) was 0.38 mg/kg, the ED50 [11, 14] was 18.1 mg/kg and the ED50 ([13]; Mus musculus, sc, read-out: ED50) was 0.05 mg/kg.
